Consider 3 molecules from ChEMBL document CHEMBL4017480, “Discovery and optimization of selective FGFR4 inhibitors via scaffold hopping” (Bioorg Med Chem Lett, 2017).

Data set [1] can be described thus: Kinetic solubility of the compound at pH 7.4. Type of data set: physicochemical. The following applies: buffer, read-out: Kinetic_solubility.
Another data set concerns the target Cytochrome P450 2C19 (Homo sapiens, UniProt P33261). Description: Inhibition of CYP2C19 in human liver microsomes using S-mephenytoin as substrate pretreated for 10 mins followed by substrate addition measured after 10 mins in presence of NADPH by LC-MS/MS method. Type of data set: ADME.
A further data set addresses Cytochrome P450 2D6 (Homo sapiens, UniProt P10635). Description: Inhibition of CYP2D6 in human liver microsomes using dextromethorphan as substrate pretreated for 10 mins followed by substrate addition measured after 10 mins in presence of NADPH by LC-MS/MS method. The data set is classed as ADME. (In general: Liver microsomes are vesicles of endoplasmic reticulum, rich in cytochrome P450 enzymes.)

The target in another data set is Cytochrome P450 3A4 (Homo sapiens, UniProt P08684). Kind of data set: Inhibition of CYP3A4 in human liver microsomes using midazolam as substrate pretreated for 10 mins followed by substrate addition measured after 10 mins in presence of NADPH by LC-MS/MS method. Type of data set: ADME.
Data set [2] can be described thus: Stability in human plasma assessed as compound remaining at 2 uM measured after 2 hrs by LC-MS/MS analysis. Type of data set: ADME, cell-free. The following applies: read-out: Stability.
Data set [3] is described as follows: Intrinsic clearance in human liver microsomes at 1 uM measured after 60 mins in presence of NADPH by LC-MS/MS analysis. Type of data set: ADME, microsome. Particulars: read-out: CLH.
Another data set concerns the target VEGFR2 (Homo sapiens, UniProt P35968). Description: Inhibition of human VEGFR2 at 10 uM using poly[Glu:Tyr] (4:1) as substrate measured after 120 mins in presence of [gamma33P]ATP by P81 ion exchange chromatographic method relative to control. Particulars: human VEGFR2 kinase, probe poly[Glu:Tyr] (4:1).
For data set [4], the target named is Tyrosine-protein kinase BTK (Homo sapiens, UniProt Q06187). Description: Inhibition of human BTK at 10 uM using KVEKIGEGTYGVVYK as substrate measured after 120 mins in presence of [gamma33P]ATP by P81 ion exchange chromatographic method relative to control.
Data set [5] concerns the target Macrophage colony-stimulating factor 1 receptor (Homo sapiens, UniProt P07333). Description: Inhibition of human FMS at 10 uM using poly[Glu:Tyr] (4:1) as substrate measured after 120 mins in presence of [gamma33P]ATP by P81 ion exchange chromatographic method relative to control.
The target of data set [6] is T1, Tyrosine-protein kinase ITK/TSK (Homo sapiens) (UniProt Q08881).
T1 sequence (whole entry): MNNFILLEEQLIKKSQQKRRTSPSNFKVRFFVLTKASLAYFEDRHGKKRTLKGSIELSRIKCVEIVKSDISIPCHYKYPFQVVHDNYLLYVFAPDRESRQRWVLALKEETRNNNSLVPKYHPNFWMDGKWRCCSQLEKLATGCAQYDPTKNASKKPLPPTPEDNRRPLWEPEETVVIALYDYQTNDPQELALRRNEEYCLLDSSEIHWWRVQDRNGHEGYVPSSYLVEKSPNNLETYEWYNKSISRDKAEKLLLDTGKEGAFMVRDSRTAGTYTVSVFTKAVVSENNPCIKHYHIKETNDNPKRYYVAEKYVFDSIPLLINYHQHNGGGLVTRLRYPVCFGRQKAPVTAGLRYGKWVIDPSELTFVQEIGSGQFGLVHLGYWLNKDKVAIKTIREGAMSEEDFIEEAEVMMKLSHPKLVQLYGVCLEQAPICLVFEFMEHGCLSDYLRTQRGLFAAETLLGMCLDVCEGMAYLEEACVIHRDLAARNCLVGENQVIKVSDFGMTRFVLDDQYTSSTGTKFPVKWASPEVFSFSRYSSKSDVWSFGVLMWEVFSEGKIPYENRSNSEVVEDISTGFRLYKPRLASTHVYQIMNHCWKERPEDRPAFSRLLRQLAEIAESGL
Description: Inhibition of human ITK at 10 uM using myelin basic protein as substrate measured after 120 mins in presence of [gamma33P]ATP by P81 ion exchange chromatographic method relative to control.

Data set [7] concerns the target Epidermal growth factor receptor (Homo sapiens, UniProt P00533). Kind of data set: Inhibition of human EGFR using poly[Glu:Tyr] (4:1) as substrate measured after 120 mins in presence of [gamma33P]ATP by P81 ion exchange chromatographic method.
Data set [8] addresses T2, Tyrosine-protein kinase ITK/TSK (Homo sapiens, UniProt Q08881).
T2 sequence (Q08881 whole entry): T1 sequence (whole entry)
Description: Inhibition of human ITK using myelin basic protein as substrate measured after 120 mins in presence of [gamma33P]ATP by P81 ion exchange chromatographic method.

The target of data set [9] is T3, Tyrosine-protein kinase JAK3 (Homo sapiens, UniProt P52333).
T3 sequence (P52333 whole entry): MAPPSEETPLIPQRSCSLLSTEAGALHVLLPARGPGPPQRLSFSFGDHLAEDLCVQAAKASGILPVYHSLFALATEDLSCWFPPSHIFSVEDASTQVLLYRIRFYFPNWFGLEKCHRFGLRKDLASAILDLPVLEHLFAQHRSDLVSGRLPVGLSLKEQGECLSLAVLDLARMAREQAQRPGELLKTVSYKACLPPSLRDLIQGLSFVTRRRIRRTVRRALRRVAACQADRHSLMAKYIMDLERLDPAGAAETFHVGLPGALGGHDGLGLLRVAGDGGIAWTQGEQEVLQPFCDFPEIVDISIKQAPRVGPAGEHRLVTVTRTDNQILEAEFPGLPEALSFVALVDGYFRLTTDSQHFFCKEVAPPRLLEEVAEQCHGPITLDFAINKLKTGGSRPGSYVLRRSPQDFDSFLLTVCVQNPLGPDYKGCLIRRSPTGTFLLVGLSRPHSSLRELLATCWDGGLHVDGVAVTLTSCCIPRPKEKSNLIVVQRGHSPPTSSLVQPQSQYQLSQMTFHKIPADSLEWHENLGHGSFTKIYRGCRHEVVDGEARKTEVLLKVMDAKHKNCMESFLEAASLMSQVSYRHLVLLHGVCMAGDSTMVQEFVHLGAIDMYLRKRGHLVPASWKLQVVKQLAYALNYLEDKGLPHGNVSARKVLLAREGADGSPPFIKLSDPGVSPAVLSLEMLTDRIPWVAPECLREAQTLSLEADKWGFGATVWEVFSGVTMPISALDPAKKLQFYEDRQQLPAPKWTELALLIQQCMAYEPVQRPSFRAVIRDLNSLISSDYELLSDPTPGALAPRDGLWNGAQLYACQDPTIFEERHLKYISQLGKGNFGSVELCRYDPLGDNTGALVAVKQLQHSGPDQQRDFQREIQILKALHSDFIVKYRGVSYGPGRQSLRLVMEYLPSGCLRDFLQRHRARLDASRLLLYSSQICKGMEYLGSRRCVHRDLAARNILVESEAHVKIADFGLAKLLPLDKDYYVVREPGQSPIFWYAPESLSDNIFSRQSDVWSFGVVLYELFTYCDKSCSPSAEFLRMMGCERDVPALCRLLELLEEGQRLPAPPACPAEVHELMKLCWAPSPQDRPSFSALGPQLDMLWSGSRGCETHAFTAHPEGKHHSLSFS
Description: Inhibition of human JAK3 using GEEEEYFELVKKKK as substrate measured after 120 mins in presence of [gamma33P]ATP by P81 ion exchange chromatographic method.

pIC50: −log10 of the molar value. Converted amounts (≈) assume the structure as drawn. Some results are limits rather than exact numbers.

Cytochrome P450 2D6, sequence (P10635 whole entry): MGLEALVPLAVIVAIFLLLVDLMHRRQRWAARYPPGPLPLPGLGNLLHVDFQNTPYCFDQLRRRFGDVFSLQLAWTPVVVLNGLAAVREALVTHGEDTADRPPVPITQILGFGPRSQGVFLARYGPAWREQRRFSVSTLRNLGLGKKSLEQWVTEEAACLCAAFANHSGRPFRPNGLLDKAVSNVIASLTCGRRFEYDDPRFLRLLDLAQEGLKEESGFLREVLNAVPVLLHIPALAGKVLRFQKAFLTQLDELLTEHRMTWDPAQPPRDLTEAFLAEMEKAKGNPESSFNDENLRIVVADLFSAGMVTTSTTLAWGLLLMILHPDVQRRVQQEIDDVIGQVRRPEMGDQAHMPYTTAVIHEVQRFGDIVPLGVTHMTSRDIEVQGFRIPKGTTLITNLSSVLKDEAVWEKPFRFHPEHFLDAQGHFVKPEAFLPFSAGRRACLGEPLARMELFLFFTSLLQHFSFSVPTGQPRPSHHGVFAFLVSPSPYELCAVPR
Tyrosine-protein kinase BTK, sequence (Q06187 whole entry): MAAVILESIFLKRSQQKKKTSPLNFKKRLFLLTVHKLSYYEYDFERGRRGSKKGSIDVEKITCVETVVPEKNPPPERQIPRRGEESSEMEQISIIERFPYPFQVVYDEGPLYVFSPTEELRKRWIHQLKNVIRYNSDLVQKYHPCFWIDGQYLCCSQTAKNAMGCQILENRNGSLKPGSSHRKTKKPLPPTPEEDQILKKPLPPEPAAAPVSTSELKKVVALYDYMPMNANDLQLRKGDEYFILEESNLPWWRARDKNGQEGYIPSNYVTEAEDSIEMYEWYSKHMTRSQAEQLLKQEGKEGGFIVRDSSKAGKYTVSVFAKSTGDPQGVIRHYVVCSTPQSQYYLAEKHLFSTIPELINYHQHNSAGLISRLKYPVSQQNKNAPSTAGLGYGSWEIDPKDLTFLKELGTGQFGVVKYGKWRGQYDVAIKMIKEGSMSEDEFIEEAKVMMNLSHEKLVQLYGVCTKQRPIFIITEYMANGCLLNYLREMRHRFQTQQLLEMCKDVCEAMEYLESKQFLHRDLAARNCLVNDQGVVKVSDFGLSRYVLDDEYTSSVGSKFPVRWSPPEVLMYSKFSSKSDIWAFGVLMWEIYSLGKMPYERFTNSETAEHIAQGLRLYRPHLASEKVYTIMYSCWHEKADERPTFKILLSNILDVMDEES
VEGFR2, sequence (P35968 whole entry): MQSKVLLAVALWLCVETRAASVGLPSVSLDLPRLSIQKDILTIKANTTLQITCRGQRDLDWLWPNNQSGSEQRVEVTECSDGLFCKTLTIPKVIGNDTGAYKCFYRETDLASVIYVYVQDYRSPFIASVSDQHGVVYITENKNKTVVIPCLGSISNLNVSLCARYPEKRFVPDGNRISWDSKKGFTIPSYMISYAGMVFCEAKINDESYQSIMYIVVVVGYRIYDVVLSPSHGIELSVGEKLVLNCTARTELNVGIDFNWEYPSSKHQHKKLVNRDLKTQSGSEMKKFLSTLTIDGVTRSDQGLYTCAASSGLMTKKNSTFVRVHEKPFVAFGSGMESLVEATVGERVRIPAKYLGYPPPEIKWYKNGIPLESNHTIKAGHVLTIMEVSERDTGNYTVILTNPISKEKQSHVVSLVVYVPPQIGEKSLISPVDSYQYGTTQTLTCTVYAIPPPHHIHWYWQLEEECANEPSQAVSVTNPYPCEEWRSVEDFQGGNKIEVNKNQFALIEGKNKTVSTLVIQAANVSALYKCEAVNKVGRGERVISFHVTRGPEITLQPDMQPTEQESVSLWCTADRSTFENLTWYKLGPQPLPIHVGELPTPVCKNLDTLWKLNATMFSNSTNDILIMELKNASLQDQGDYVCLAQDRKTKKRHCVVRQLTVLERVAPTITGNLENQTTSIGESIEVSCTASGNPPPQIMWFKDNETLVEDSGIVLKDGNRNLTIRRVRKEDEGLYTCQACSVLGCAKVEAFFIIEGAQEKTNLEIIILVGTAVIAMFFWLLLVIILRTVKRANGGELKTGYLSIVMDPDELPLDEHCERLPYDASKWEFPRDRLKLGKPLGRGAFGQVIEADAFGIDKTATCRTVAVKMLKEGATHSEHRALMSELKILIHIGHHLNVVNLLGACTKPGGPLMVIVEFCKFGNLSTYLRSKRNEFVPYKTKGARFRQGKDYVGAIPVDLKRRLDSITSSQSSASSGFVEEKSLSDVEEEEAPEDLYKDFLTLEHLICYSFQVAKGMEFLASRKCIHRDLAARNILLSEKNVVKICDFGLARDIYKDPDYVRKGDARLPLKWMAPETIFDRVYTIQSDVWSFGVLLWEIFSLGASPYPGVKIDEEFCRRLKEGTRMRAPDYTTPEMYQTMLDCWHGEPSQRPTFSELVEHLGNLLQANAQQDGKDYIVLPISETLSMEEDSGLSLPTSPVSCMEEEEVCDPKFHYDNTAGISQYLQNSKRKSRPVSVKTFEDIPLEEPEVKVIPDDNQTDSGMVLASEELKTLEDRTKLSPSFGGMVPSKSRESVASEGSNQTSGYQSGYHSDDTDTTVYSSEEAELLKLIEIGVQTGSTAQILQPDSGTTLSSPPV
Cytochrome P450 2C19, sequence (P33261 whole entry): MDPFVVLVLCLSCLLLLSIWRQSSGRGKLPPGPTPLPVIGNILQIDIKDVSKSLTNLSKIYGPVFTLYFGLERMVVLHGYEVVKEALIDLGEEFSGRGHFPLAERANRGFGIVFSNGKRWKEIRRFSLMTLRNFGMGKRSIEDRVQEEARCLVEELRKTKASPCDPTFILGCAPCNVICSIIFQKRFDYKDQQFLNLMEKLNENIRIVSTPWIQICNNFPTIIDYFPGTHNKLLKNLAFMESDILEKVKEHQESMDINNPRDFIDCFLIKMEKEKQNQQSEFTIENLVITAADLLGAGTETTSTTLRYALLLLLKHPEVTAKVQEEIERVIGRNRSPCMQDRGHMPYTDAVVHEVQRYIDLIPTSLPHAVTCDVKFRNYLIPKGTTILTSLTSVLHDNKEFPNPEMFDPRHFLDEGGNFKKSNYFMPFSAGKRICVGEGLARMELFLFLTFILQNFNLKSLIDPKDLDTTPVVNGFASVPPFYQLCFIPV
Cytochrome P450 3A4, sequence (P08684 whole entry): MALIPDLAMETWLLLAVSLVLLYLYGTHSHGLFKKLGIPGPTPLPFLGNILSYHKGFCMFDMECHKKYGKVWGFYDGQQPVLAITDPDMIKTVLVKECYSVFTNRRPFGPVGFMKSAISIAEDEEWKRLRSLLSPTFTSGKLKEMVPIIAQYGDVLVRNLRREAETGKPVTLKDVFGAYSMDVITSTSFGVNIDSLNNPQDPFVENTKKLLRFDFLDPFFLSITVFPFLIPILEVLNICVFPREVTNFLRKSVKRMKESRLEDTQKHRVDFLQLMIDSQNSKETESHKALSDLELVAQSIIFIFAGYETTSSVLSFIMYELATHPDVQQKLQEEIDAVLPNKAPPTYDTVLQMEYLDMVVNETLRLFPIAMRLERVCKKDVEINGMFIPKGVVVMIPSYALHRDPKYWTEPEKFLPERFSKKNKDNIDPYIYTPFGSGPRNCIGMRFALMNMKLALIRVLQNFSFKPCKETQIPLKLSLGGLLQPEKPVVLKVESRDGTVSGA
Epidermal growth factor receptor, sequence (P00533 whole entry): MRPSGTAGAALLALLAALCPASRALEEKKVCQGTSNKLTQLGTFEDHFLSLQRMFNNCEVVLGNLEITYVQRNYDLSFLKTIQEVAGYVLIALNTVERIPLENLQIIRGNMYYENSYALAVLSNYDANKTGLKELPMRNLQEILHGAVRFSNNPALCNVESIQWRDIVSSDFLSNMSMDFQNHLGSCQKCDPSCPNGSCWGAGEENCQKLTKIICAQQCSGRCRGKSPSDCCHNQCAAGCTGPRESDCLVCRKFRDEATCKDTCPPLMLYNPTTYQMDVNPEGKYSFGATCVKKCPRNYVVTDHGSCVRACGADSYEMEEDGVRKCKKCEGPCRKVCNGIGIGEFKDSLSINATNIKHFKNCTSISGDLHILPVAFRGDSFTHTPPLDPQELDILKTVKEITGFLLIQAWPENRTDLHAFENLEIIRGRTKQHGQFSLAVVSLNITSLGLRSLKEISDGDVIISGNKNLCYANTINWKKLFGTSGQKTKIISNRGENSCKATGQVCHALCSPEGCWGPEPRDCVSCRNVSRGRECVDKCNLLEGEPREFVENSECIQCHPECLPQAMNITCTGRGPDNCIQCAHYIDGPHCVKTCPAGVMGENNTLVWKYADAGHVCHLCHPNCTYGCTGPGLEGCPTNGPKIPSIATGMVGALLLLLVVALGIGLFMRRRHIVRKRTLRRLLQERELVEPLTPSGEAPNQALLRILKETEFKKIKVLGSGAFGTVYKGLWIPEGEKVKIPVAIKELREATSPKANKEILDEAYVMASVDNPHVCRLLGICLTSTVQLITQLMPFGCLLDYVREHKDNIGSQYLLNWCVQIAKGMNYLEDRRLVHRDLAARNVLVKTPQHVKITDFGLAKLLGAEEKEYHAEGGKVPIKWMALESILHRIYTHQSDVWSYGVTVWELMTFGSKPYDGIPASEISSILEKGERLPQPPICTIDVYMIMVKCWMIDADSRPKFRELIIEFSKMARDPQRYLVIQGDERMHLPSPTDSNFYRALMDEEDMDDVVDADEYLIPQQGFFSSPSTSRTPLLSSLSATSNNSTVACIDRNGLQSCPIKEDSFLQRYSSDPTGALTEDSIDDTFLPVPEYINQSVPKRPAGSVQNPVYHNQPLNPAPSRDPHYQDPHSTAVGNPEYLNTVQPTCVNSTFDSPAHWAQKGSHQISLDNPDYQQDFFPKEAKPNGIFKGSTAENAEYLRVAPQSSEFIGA

The term pIC50 denotes the negative decadic logarithm of the IC50, by convention in mol/L. Usually inhibition stands for the drop in the measured response relative to a control, in per cent. As for `C=CC(=O)Nc1cccc(C)c1Nc1ncc(OCc2c(F)c(OC)cc(OC)c2F)cn1`, the solubility kinetic in [1] worked out at 39 µg/mL (≈ 85.4 µM). For the same molecule, the pIC50 on Cytochrome P450 2C19 is 5.82; at Cytochrome P450 2D6 it was 4.46; on Cytochrome P450 3A4, 5.16; in data set [7], less than 5.00; in data set [8], less than 5.00; in [9], less than 5.00. In addition, the remaining at 2 h, 2 µM in data set [2] came out at 48%. Further, the CLint scaled at 1 µM in [3] is 165 mL/min/kg. In addition, the inhibition at 2 h, 10 µM on VEGFR2 worked out at 19%. Also, the inhibition came out at 7% in data set [4], 4% in data set [5] and 9% in data set [6].
As for `C=CC(=O)N[C@H]1COC[C@H]1Nc1ncc(OCc2c(F)c(OC)cc(OC)c2F)cn1`, the solubility kinetic in data set [1] was 78 µg/mL (≈ 179 µM). In addition, the pIC50 is 4.70 at Cytochrome P450 2C19; less than 4.30 at Cytochrome P450 2D6; 4.88 on Cytochrome P450 3A4; less than 5.00 in [7]; less than 5.00 in data set [8]; less than 5.00 in data set [9]. For the same molecule, the remaining at 2 h, 2 µM in data set [2] is 92%. Moreover, the CLint scaled at 1 µM in data set [3] turned out to be 18 mL/min/kg. Further, on VEGFR2, the inhibition at 2 h, 10 µM was 11%. In addition, the inhibition in data set [4] is 14%; in data set [5], 6%; in data set [6] it was 0%.
With `C=CC(=O)Nc1cccc(C)c1Nc1ncc2cc(-c3c(Cl)c(OC)cc(OC)c3Cl)ccc2n1`, the solubility kinetic in data set [1] is less than 0.5 µg/mL. The negative logarithm of the IC50 (pIC50) at Cytochrome P450 2C19 was 5.77; on Cytochrome P450 2D6, 4.90; on Cytochrome P450 3A4, 5.52; in data set [7], less than 5.00; in [8] it was less than 5.00; in data set [9], less than 5.00. In [2], the remaining at 2 h, 2 µM is 71%. Besides, the CLint scaled at 1 µM in data set [3] amounted to 41 mL/min/kg. Also, the inhibition at 2 h, 10 µM on VEGFR2 was 23%. Also, the inhibition in data set [4] was -7%; in data set [5], 78%; in data set [6], 16%.
